According to patent US20190352341A1, “MODIFIED PEPTIDES AND THEIR USE FOR TREATING SYSTEMIC LUPUS ERYTHEMATOSUS” (IMMUPHARMA FRANCE SA, priority 2018, published 2019):
Square brackets hold non-standard residues; d marks the D form. Peptide text beside a SMILES is read from it. Met(O) = CS(=O)CC[C@H](N)C(=O)O; pS = N[C@@H](COP(=O)(O)O)C(=O)O

Tests used:
MRL/lpr mice [1] = assay: Proteinuria analysis in MRL/lpr mice; type: in vivo, mouse; conditions: Albustix score, compared to the untreated mice
Experimental: Proteinuria of the above mice was measured in fresh urine using Albustix (Bayer Diagnostics) and was semi-quantitatively estimated according to a […] recommended by the manufacturer (no proteinuria=0; traces=1; 1+=2; 2+=3; 3+=4; 4+=5).
(§1) Statistical tests were performed using GraphPad Prism version 5.0. The two-way ANOVA test was used to analyze statistical significance of proteinuria differences between control and peptide-treated groups of mice. Survival of control and P140 analogue-treated female MRL/lpr mice was analyzed by the Kaplan-Meier method, and the significance of differences was determined by the log-rank test. For the other variables, statistical significance was assessed using the Student's t-test. p values less than 0.05 were considered significant.

[2] = Stability of the peptides at 37° C. (HPLC peak area); type: physicochemical; conditions: for 95% of stability (predicted): time to 95% from linear equation; for Stability (%) Linear equation: slope: y = stability %, x = days; for Stability (%): 10% mannitol
Experimental: The stability of the peptide SEQ ID NO: 1 in which the serine at position 10 is phosphorylated and the methionine at position 4 is oxydized (P140(MO)), and the peptide SEQ ID NO: 1 in which the serine at position 10 is phosphorylated (P140) was measured at 37° C., in a solution of 10% (v/v) mannitol. For each peptide, 3 concentrations have been tested: 200, 100 and 50 μg/mL.
At the indicated time, the integrity of P140 and P140(MO) peptides was measured in saline by high-performance liquid chromatography from the area of the peak corresponding to the intact peptide.
Stability is measured by using the HPLC peak surface.

HSC70 protein = target: T1, HSC70 protein (Bos taurus, UniProt P19120); assay: Affinity of the peptides for HSC70 protein (BIAcore); type: binding, bovine
T1 construct: purchased Stressgen
T1 sequence (P19120 whole entry): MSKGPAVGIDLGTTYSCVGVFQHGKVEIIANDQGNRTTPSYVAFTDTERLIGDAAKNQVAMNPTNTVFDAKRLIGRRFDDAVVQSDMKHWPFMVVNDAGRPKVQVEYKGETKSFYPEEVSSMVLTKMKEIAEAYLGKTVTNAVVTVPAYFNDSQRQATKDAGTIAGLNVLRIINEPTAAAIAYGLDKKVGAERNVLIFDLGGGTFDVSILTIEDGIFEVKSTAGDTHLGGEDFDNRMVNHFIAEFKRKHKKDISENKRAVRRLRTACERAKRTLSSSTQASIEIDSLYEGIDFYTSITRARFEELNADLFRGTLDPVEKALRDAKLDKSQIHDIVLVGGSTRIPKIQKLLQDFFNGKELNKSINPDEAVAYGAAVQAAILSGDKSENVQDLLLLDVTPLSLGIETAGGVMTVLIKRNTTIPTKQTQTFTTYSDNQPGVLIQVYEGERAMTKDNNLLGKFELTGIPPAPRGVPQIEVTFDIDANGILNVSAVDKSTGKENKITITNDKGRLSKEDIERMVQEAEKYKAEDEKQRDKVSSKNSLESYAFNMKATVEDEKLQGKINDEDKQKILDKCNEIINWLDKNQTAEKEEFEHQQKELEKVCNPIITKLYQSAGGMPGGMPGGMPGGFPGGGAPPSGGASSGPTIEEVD
Experimental: BIAcore 3000 system (Biacore AB) was used to evaluate the binding of P140 peptides to HSC70 protein (Page et al., 2009, and 2011). Sensor chip CMS, surfactant P20, amine coupling kit containing N-hydroxysuccinimide (NHS) and N-ethyl-N′-dimethylaminopropyl carbodiimide (EDC), 2-(2-pyridinyldithio)ethaneamine (PDEA) and ethanolamine were from Biacore AB. Biosensor assays were performed with HBS-EP buffer as running buffer (10 mM HEPES, 150 mM NaCl, 3 mM EDTA, 0.005% surfactant P20, pH 7.4). The compounds were diluted in the running buffer. The sensor chip surface was regenerated after each experiment by injecting 10 μL of 10 mM HCl. Recombinant bovine HSC70 (Stressgen) was immobilized on flow cells of a CM5 sensor chip through its thiol groups using 35 μL PDEA in 50 mM borate buffer, pH 8.3 on the NHS/EDC-activated matrix. Then, 35 μL of HSC70 (100 μg/mL in formate buffer, pH 4.3) were injected until a response of 13,000 response units (RU) corresponding to 13 ng/mm^2 of HSC70 was immobilized. Twenty μL of a 50 mM cysteine/1 M NaCl solution was used to saturate unoccupied sites on the chip. The direct binding measurement of P140 peptides to HSC70 was carried out at 25° C. with a constant flow rate of 20 μL/min. P140 peptide and analogues were injected in the flux at different concentrations for 3 min, followed by a dissociation phase of 3 min. The kinetic parameters were calculated using the BIAeval 3.1 software on a personal computer. Analysis was performed using the simple 1:1 Langmuir binding model. The specific binding profiles were obtained after subtracting the response signal from the control empty channel and from blank-buffer injection. The fitting to each model was judged by the χ^2 value and randomness of residue distribution compared to the theoretical model.

MRL/lpr mice [3] = assay: Survival analysis in MRL/lpr mice; type: in vivo, mouse; conditions: female MRL/lpr mice, peptide intravenously from five weeks of age; NaCl control 25 weeks
Experimental: It has been determined that this mouse strain carries a mutation in the fas gene. Also, the MRL/lpr is a useful model to study behavioural and cognitive deficits found in autoimmune diseases and the efficacy of immunosuppressive agents [Monneaux et al., 2003, Eur. J. Immunol. 33, 287-296].
Five-week-old female MRL/lpr mice received P140 or peptide P140(MO) intravenously as described (Monneaux et al., 2003, Eur. J. Immunol. 33, 287-296). All experimental protocols were carried out with the approval of the local Institutional Animal Care and Use Committee (CREMEAS). As control, mice were injected with NaCl.
Twenty mice were used for each peptide or NaCl.
as §1

MRL/lpr mice [4] = assay: Cellularity analysis (peripheral blood) in MRL/lpr mice; type: in vivo, mouse; conditions: 100 μg/100 μL, 5 days after unique injection
Experimental: MRL/lpr mice were injected with 100 μg/100 μL of P140 or P140(MO) and cellularity (peripheral blood) was studied 5 days after this unique injection. The count includes all the leucocytes. In view of the low number of tested mice, a non parametric statistical test has been realised Mann-Whitney).

[5] = BIAcore, 25° C., 1:1 Langmuir model, global fit

In the case of CC[C@H](C)[C@H](NC(=O)[C@H](Cc1ccccc1)NC(=O)[C@H](C)NC(=O)[C@H](Cc1ccc(O)cc1)NC(=O)CNC(=O)[C@H](CCCNC(=N)N)NC(=O)[C@@H]1CCCN1C(=O)[C@H](CCCCN)NC(=O)CNC(=O)[C@H](COP(=O)(O)O)NC(=O)[C@H](CCCNC(=N)N)NC(=O)[C@H](CCCCN)NC(=O)[C@H](CO)NC(=O)[C@H](Cc1ccc(O)cc1)NC(=O)[C@@H](NC(=O)[C@H](CC[S+](C)[O-])NC(=O)[C@H](Cc1c[nH]cn1)NC(=O)[C@@H](NC(=O)[C@@H](N)CCCNC(=N)N)[C@@H](C)CC)C(C)C)C(=O)N[C@@H](CCC(=O)O)C(=O)N[C@@H](Cc1ccc(O)cc1)C(=O)O (stereo partly shown) [P140(MO), RIHM(O)VYSKRS(PO3H2)GKPRGYAFIEY] (H-RIH[Met(O)]VYSKR[pS]GKPRGYAFIEY-OH), the Proteinuria (MRL/lpr mice [1]) is reported as “less important and appears lately”, the “Stability (%) Linear equation: intercept” value ([2]; 50 μg/mL) is reported as 99.677 and the “95% of stability (predicted)” value ([2]; 50 μg/mL) is reported as 2 years. The “Stability (%) Linear equation: slope” value ([2]; 50 μg/mL) was “y = −0.0064x +”, the “Stability (%) Linear equation: intercept” value ([2]; 100 μg/mL) was 100.11 and the “95% of stability (predicted)” value ([2]; 100 μg/mL) was 2 years +. For the same compound, the “Stability (%) Linear equation: slope” value ([2]; 100 μg/mL) was “y = −0.0064x +”, the “95% of stability (predicted)” value ([2]; 200 μg/mL) was “∞” and the “Stability (%)” value ([2]; 50 μg/mL, day 0) was 100%. For the same compound, the “Stability (%)” value ([2]; 50 μg/mL, day 20) was 100%, the “Stability (%)” value ([2]; 50 μg/mL, day 40) was 100% and the “Stability (%)” value ([2]; 50 μg/mL, day 100) was 99.4%. For the same compound, the “Stability (%)” value ([2]; 100 μg/mL, day 0) was 100%, the “Stability (%)” value ([2]; 100 μg/mL, day 20) was 99.1% and the “Stability (%)” value ([2]; 100 μg/mL, day 40) was 99.5%. The “Stability (%)” value ([2]; 100 μg/mL, day 100) was 99.1%, the “Stability (%)” value ([2]; 200 μg/mL, day 0) was 100% and the “Stability (%)” value ([2]; 200 μg/mL, day 20) was 100%. For the same compound, the “Stability (%)” value ([2]; 200 μg/mL, day 40) was 100%, the “Stability (%)” value ([2]; 200 μg/mL, day 100) was 100% and the Rmax (HSC70 protein; BIAcore, 25° C., 1:1 Langmuir model) was 39 RU. The KA (HSC70 protein; [5]) was 524000 M⁻¹, the kd (HSC70 protein; [5]) was 0.0022 s⁻¹ and the RI (HSC70 protein; peptide 1.56 μM) was 14 RU. The Req (HSC70 protein; peptide 1.56 μM) was 17.6 RU, the kobs (HSC70 protein; peptide 1.56 μM) was 0.004 s⁻¹ and the RI (HSC70 protein; peptide 3.12 μM) was 18.7 RU. The Req (HSC70 protein; peptide 3.12 μM) was 242 RU, the kobs (HSC70 protein; peptide 3.12 μM) was 0.0058 s⁻¹ and the RI (HSC70 protein; peptide 6.25 μM) was 25.9 RU. The Req (HSC70 protein; peptide 6.25 μM) was 29.9 RU, the kobs (HSC70 protein; peptide 6.25 μM) was 0.0094 s⁻¹ and the RI (HSC70 protein; peptide 12.5 μM) was 36.9 RU. For the same compound, the Req (HSC70 protein; peptide 12.5 μM) was 33.9 RU, the kobs (HSC70 protein; peptide 12.5 μM) was 0.0166 s⁻¹ and the RI (HSC70 protein; peptide 25 μM) was 53.4 RU. The Req (HSC70 protein; peptide 25 μM) was 36.3 RU, the kobs (HSC70 protein; peptide 25 μM) was 0.031 s⁻¹ and the “Median survival of mice” value (MRL/lpr mice [3]) was > 40 weeks. The “Peripheral hypercellularity (leucocytes in peripheral blood)” value (MRL/lpr mice [4]) was “decrease peripheral hypercellularity”.
